Numbers after ± are expanded uncertainties.
Assay: activity coefficient (dimensionless); of the first substance listed, at infinite dilution; xn = mol fraction of the nth substance listed
Conditions: 101.33 kPa, Liquid, Chromatography, x1 = 0

Structure (SMILES)	activity coefficient (328.15 K)	activity coefficient (338.15 K)	activity coefficient (348.15 K)	activity coefficient (358.15 K)	activity coefficient (368.15 K)	activity coefficient (378.15 K)	activity coefficient (318.15 K)
CCC(C)(C)C [2,2-dimethylbutane] + CCCCCCCCCCCC[N+](C)(C)CCOc1ccccc1.N#C[N-]C#N	5.84 ± 0.4	5.95 ± 0.41	6.05 ± 0.41	6.14 ± 0.42	6.25 ± 0.43	6.35 ± 0.43	–
COC(C)=O [methyl ethanoate] + CCCCCCCCCCCC[N+](C)(C)CCOc1ccccc1.N#C[N-]C#N	1.03 ± 0.06	1.06 ± 0.07	1.09 ± 0.07	1.12 ± 0.07	1.14 ± 0.07	1.17 ± 0.07	–
Cc1ccc(C)cc1 [1,4-dimethylbenzene] + CCCCCCCCCCCC[N+](C)(C)CCOc1ccccc1.O=S(=O)([N-]S(=O)(=O)C(F)(F)F)C(F)(F)F	0.916 ± 0.058	0.967 ± 0.061	1.02 ± 0.06	1.08 ± 0.07	1.14 ± 0.07	–	0.861 ± 0.055
C=CCCCC [hex-1-ene] + CCCCCCCCCCCC[N+](C)(C)CCOc1ccccc1.O=S(=O)([N-]S(=O)(=O)C(F)(F)F)C(F)(F)F	2.24 ± 0.15	2.28 ± 0.16	2.32 ± 0.16	2.36 ± 0.16	2.41 ± 0.16	–	2.19 ± 0.15
CC(C)CC(C)(C)C [2,2,4-trimethylpentane] + CCCCCCCCCCCC[N+](C)(C)CCOc1ccccc1.N#C[N-]C#N	7.07 ± 0.48	7.15 ± 0.49	7.23 ± 0.49	7.32 ± 0.5	7.39 ± 0.5	7.47 ± 0.51	–
C1=CCCCC1 [cyclohexene] + CCCCCCCCCCCC[N+](C)(C)CCOc1ccccc1.N#C[N-]C#N	2.16 ± 0.15	2.19 ± 0.15	2.22 ± 0.15	2.26 ± 0.15	2.29 ± 0.16	2.31 ± 0.16	–
C=CCCCC [hex-1-ene] + CCCCCCCCCCCC[N+](C)(C)CCOc1ccccc1.N#C[N-]C#N	3.59 ± 0.24	3.68 ± 0.25	3.76 ± 0.26	3.84 ± 0.26	3.9 ± 0.27	3.99 ± 0.27	–
CCCCO [butan-1-ol] + CCCCCCCCCCCC[N+](C)(C)CCOc1ccccc1.N#C[N-]C#N	0.463 ± 0.036	0.473 ± 0.037	0.483 ± 0.037	0.494 ± 0.038	0.504 ± 0.038	0.514 ± 0.038	–
CC(C)CO [2-methyl-1-propanol] + CCCCCCCCCCCC[N+](C)(C)CCOc1ccccc1.N#C[N-]C#N	0.451 ± 0.036	0.46 ± 0.036	0.469 ± 0.037	0.477 ± 0.037	0.486 ± 0.037	0.494 ± 0.038	–
CC1CCCCC1 [methylcyclohexane] + CCCCCCCCCCCC[N+](C)(C)CCOc1ccccc1.O=S(=O)([N-]S(=O)(=O)C(F)(F)F)C(F)(F)F	2.39 ± 0.16	2.43 ± 0.17	2.47 ± 0.17	2.51 ± 0.17	2.55 ± 0.17	–	2.35 ± 0.16
C1CCCCC1 [cyclohexane] + CCCCCCCCCCCC[N+](C)(C)CCOc1ccccc1.O=S(=O)([N-]S(=O)(=O)C(F)(F)F)C(F)(F)F	2.05 ± 0.14	2.08 ± 0.14	2.11 ± 0.14	2.13 ± 0.14	2.16 ± 0.15	–	2.02 ± 0.14
CC(C)=O [acetone] + CCCCCCCCCCCC[N+](C)(C)CCOc1ccccc1.N#C[N-]C#N	0.721 ± 0.048	0.745 ± 0.049	0.767 ± 0.05	0.791 ± 0.051	0.813 ± 0.053	0.834 ± 0.054	–
C=C(C)c1ccccc1 [(1-methylethenyl)benzene] + CCCCCCCCCCCC[N+](C)(C)CCOc1ccccc1.N#C[N-]C#N	1.11 ± 0.07	1.18 ± 0.08	1.25 ± 0.08	1.32 ± 0.09	1.39 ± 0.09	1.46 ± 0.1	–
CCCC(C)=O [pentan-2-one] + CCCCCCCCCCCC[N+](C)(C)CCOc1ccccc1.O=S(=O)([N-]S(=O)(=O)C(F)(F)F)C(F)(F)F	0.41 ± 0.034	0.434 ± 0.035	0.458 ± 0.036	0.481 ± 0.037	0.503 ± 0.038	–	0.386 ± 0.033
CCCCCC [hexane] + CCCCCCCCCCCC[N+](C)(C)CCOc1ccccc1.N#C[N-]C#N	5.12 ± 0.35	5.22 ± 0.36	5.3 ± 0.36	5.41 ± 0.37	5.53 ± 0.38	5.6 ± 0.38	–
CCCO [propan-1-ol] + CCCCCCCCCCCC[N+](C)(C)CCOc1ccccc1.N#C[N-]C#N	0.425 ± 0.035	0.435 ± 0.035	0.445 ± 0.036	0.454 ± 0.036	0.463 ± 0.036	0.471 ± 0.037	–
